From ChEMBL document CHEMBL1154077, “Carbonic anhydrase inhibitors. Inhibition studies of a coral secretory isoform by sulfonamides” (Bioorg Med Chem, 2009) come the findings set out here.

This assay concerns the target T1, Alpha carbonic anhydrase (Stylophora pistillata, UniProt B5SU02).
T1 sequence (B5SU02 whole entry): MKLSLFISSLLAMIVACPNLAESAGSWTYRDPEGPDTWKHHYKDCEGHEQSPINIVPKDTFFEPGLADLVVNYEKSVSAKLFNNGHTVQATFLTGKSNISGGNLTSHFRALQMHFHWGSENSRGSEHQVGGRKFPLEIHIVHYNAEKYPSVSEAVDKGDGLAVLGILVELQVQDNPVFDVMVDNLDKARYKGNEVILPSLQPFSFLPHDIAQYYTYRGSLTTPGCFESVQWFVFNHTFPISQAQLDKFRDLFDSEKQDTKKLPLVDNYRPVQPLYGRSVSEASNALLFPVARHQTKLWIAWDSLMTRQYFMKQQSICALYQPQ
Description: Inhibition of cloned Stylophora pistillata alpha-CA expressed in human HEK293 cells by stopped-flow CO2 assay
For the compound `NS(=O)(=O)c1nnc(NS(=O)(=O)c2ccccc2)s1` [BENZOLAMIDE], affinity was put at a Ki of 0.0204 µM. In other words, the double-digit nanomolar range.
With `Cn1nc(S(N)(=O)=O)sc1=N`, the Ki stood at 0.0919 µM. Against the preceding compound, the Ki is about 4.5-fold higher.
Under `NS(=O)(=O)c1ccc(CO)cc1` stands 0.768 µM; under `Nc1ccc(S(N)(=O)=O)cc1Br`, 0.104 µM.
The compound `NCc1ccc(S(N)(=O)=O)cc1` [MAFENIDE] returned a Ki of 0.0825 µM.
Under `CC1(C)O[C@@H]2[C@@H](CO[C@@]3(COS(N)(=O)=O)OC(C)(C)O[C@@H]23)O1` [TOPIRAMATE] stands 0.0291 µM; under `CCN[C@H]1CN(CCCOC)S(=O)(=O)c2sc(S(N)(=O)=O)cc21` [BRINZOLAMIDE], 0.0482 µM; under `Nc1nnc(S(N)(=O)=O)s1`, 0.105 µM.
With `NS(=O)(=O)c1ccc(CCO)cc1` the figure was 0.77 µM.
Under `Nc1ccc(S(N)(=O)=O)cc1Cl` stands 0.0875 µM.
In the case of `Nc1cc(Cl)c(S(N)(=O)=O)cc1S(N)(=O)=O`, affinity was put at a Ki of 0.295 µM. Against the preceding compound, the Ki is about 3.4-fold higher.
With `Cc1ccc(S(N)(=O)=O)cc1` [P-TOLUENESULFONAMIDE] the figure was 0.614 µM.
With `Nc1ccc(S(=O)(=O)NCCc2ccc(S(N)(=O)=O)cc2)cc1` the figure was 0.0197 µM.
Under `Nc1ccc(S(=O)(=O)Nc2nnc(S(N)(=O)=O)s2)cc1` stands 0.0276 µM; under `NNc1ccccc1S(N)(=O)=O`, 2.51 µM; under `Nc1ccc(S(N)(=O)=O)cc1F`, 0.0751 µM.
Compound `Nc1cc(C(F)(F)F)c(S(N)(=O)=O)cc1S(N)(=O)=O` [2,4-DISULFAMYLTRIFLUOROMETHYLANILINE] gave a Ki of 0.367 µM.
With `Nc1ccc(S(N)(=O)=O)cc1` [SULFANILAMIDE] the figure was 0.364 µM; with `NS(=O)(=O)c1ccc(S(=O)(=O)Nc2cccc3c(Cl)c[nH]c23)cc1`, 0.163 µM.
Under `O=C1NS(=O)(=O)c2ccccc21` [SACCHARIN] stands 0.0403 µM; under `Nc1ccc(S(=O)(=O)NCc2ccc(S(N)(=O)=O)cc2)cc1`, 0.0298 µM; under `Nc1nccc(Nc2ccc(S(N)(=O)=O)cc2)n1`, 0.0254 µM.
With `Cc1ccc(-c2cc(C(F)(F)F)nn2-c2ccc(S(N)(=O)=O)cc2)cc1` [CELECOXIB] the figure was 0.0342 µM.
Consider `Nc1ccc(S(N)(=O)=O)cc1I`, for which the affinity, expressed as Ki, was 0.0883 µM. Compared with the last compound, the Ki is about 2.6-fold higher.
`NS(=O)(=O)c1ccc(C(=O)O)cc1` [CARZENIDE] showed a Ki of 0.435 µM.
`NCCc1ccc(S(N)(=O)=O)cc1` came in with a Ki of 0.0943 µM.
